From the supplement of paper PMC5579334
± gives the standard deviation of the averaged measurements.

Assays:
[1] = tested on: HSC2 (primary human Schwann cells); experiment: drug sensitivity score (DSS, CellTox-Green cytotoxicity, 72 h) (DSS (dimensionless)); higher = more cytotoxic; extreme values may be limits of the assay
In short: (§1)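 For 72 h at 37 °C, MPNST cell lines and primary human Schwann cells were exposed in 384-well plates to five 10-fold compound dilutions. CellTox-Green, added before seeding at a final 1:1000 dilution, gave fluorescence from DNA released by disrupted cells. Signals were scaled to vehicle and positive-control wells, cultures failing plate quality control were left out, and four-parameter logistic fits were applied. Relative IC50 and drug sensitivity score were derived from the fits, with IC50 censored at the top concentration.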

[2] = tested on: HSC1 (primary human Schwann cells); experiment: as above
In short: as §1

S1507-2 [3] = experiment: as above
In short: as §1

HS-PSS [4] = experiment: as above
In short: as §1

STS26T [5] = experiment: as above
In short: as §1

ST8814 [6] = experiment: as above
In short: as §1

[7] = tested on: HSC2 (primary human Schwann cells); experiment: % inhibition of CellTiter-Glo viability at highest tested concentration (72 h), relative to DMSO and benzethonium chloride controls; higher = more inhibition
In short: (§2)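 MPNST cell lines and primary human Schwann cells were seeded at 750–1000 cells per well into 384-well plates preprinted with each compound at five concentrations in 10-fold steps, then incubated 72 h at 37 °C, 5% CO2. CellTiter-Glo ATP luminescence gave viability, scaled between vehicle and positive-control wells, with duplicates averaged where present. Curves were fitted with a four-parameter logistic model. Percent inhibition refers to the top concentration, while drug sensitivity score and relative IC50, censored at the top concentration, come from these fits.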

[8] = tested on: HSC1 (primary human Schwann cells); experiment: as above
In short: as §2

HS-Sch-2 [9] = experiment: as above
In short: as §2

S1507-2 [10] = experiment: as above
In short: as §2

S462 [11] = experiment: as above
In short: as §2

YST-1 [12] = experiment: as above
In short: as §2

HS-PSS [13] = experiment: as above
In short: as §2

STS26T [14] = experiment: as above
In short: as §2

ST8814 [15] = experiment: as above
In short: as §2

[16] = tested on: HSC2 (primary human Schwann cells); experiment: drug sensitivity score (DSS, CellTiter-Glo viability, 72 h) (DSS (dimensionless)); higher = more sensitive; extreme values may be limits of the assay
In short: as §2

[17] = tested on: HSC1 (primary human Schwann cells); experiment: as above
In short: as §2

HS-Sch-2 [18] = experiment: as above
In short: as §2

S1507-2 [19] = experiment: as above
In short: as §2

S462 [20] = experiment: as above
In short: as §2

YST-1 [21] = experiment: as above
In short: as §2

HS-PSS [22] = experiment: as above
In short: as §2

STS26T [23] = experiment: as above
In short: as §2

ST8814 [24] = experiment: as above
In short: as §2

SMILES | drug sensitivity score [1] | drug sensitivity score [2] | drug sensitivity score (S1507-2 [3]) | drug sensitivity score (HS-PSS [4]) | drug sensitivity score (STS26T [5]) | drug sensitivity score (ST8814 [6]) | % inhibition [7] [%] | % inhibition [8] [%] | % inhibition (HS-Sch-2 [9]) [%] | % inhibition (S1507-2 [10]) [%] | % inhibition (S462 [11]) [%] | % inhibition (YST-1 [12]) [%] | % inhibition (HS-PSS [13]) [%] | % inhibition (STS26T [14]) [%] | % inhibition (ST8814 [15]) [%] | drug sensitivity score [16] | drug sensitivity score [17] | drug sensitivity score (HS-Sch-2 [18]) | drug sensitivity score (S1507-2 [19]) | drug sensitivity score (S462 [20]) | drug sensitivity score (YST-1 [21]) | drug sensitivity score (HS-PSS [22]) | drug sensitivity score (STS26T [23]) | drug sensitivity score (ST8814 [24])
Cc1cc(C(C)Nc2ccccc2)c2nc(N3CCOCC3)cc(=O)n2c1 (centres undefined) [TGX-221] (max concentration tested 10000 nM) | 0 | 0 | 0 | 0 | 0.376 | 0 | 6.57 | 16.5 | 12.3 | 28.4 ± 7.1 | 7.98 ± 6.7 | 26.6 | -2.49 | 41.7 | 21.4 | 0 | 0.168 | 0.19 | 3.32 ± 0.24 | 0.122 ± 0.17 | 0.99 | 0 | 4.31 | 1.34
COc1cc2c(N3CCN(C(=O)Nc4ccc(OC(C)C)cc4)CC3)ncnc2cc1OCCCN1CCCCC1 [Tandutinib] (max concentration tested 1000 nM) | 0 | 0 | 0 | 0 | 0 | 0 | -9.62 | 2.98 | -3.01 | 9.56 ± 1.9 | 0.414 ± 5.6 | -3.87 | 7.75 | 6.33 | 8.58 | 0 | 0 | 0 | 0.0556 ± 0.079 | 0 | 0 | 0 | 0 | 0
Cc1ccc(Nc2nccc(N(C)c3ccc4c(C)n(C)nc4c3)n2)cc1S(N)(=O)=O [Pazopanib] (max concentration tested 10000 nM) | 0 | 0 | 0 | 0 | 0 | 0 | 15.2 | 20.7 | 20.7 | 9.04 ± 7 | -0.988 ± 9.1 | 0.99 | 42.6 | 7.27 | -2.02 | 0.68 | 2.03 | 1.37 | 0.325 ± 0.46 | 0 | 0 | 6.09 | 0 | 0
CN1CC[C@H](c2c(O)cc(O)c3c(=O)cc(-c4ccccc4Cl)oc23)[C@H](O)C1 [Alvocidib] (max concentration tested 10000 nM) | 11.7 | 8.24 | 2.61 ± 3.7 | 4.23 | 10.1 | 4.45 | 89.1 | 85.4 | 101 | 81.118 ± 0.0062 | 99.41 ± 0.97 | 97.8 | 83.7 | 95.8 | 79.8 | 17.9 | 18 | 20.6 | 15.5 ± 0.93 | 21.1 ± 0.91 | 20.5 | 20.4 | 20.1 | 17.8
Cc1ccc(-n2nc(C(C)(C)C)cc2NC(=O)Nc2ccc(OCCN3CCOCC3)c3ccccc23)cc1 [Doramapimod] (max concentration tested 10000 nM) | 0 | 0 | 1.81 ± 0.51 | 1.28 | 0 | 0 | 32.9 | 26.7 | 55.8 | 0.115 ± 1.9 | 12.1 ± 6.3 | 80.8 | 68.6 | 1.72 | -7.45 | 2.53 | 1.15 | 3.93 | 0 | 0.326 ± 0.46 | 10.5 | 6.23 | 0 | 0
Nc1nc(Cl)nc2c1ncn2[C@@H]1O[C@H](CO)[C@@H](O)[C@@H]1F [Clofarabine] (max concentration tested 10000 nM) | 15.8 | 15.7 | 3.61 ± 1.3 | 6.52 | 6.47 | 8.58 | 85.7 | 79.4 | 82.1 | 88.7 ± 1.4 | 103 ± 1.1 | 83.9 | 76 | 87.7 | 98.8 | 17.5 | 14.4 | 18.2 | 11 ± 1.9 | 17.2 ± 2.3 | 14.8 | 13 | 15.8 | 12.8
